“And” between values parts separate entries of the source, which are not always exact repeats. Equal values may be shown once.
Tests used:
[1] = target: T1, intrinsic factor Xase complex (iXase, VIIIa-IXa-PL-Ca2+ complex) (Homo sapiens, UniProt P00740); assay: Inhibition of iXase: chromogenic substrate assay, BIOPHEN FVIII:C kit and recombinant human factor VIII; type: biochemical; settings: IC50 ± SE (n = 2)
T1 construct: intrinsic factor Xase complexes (iXase, VIIIa-IXa-PL-Ca^2+ complex); purchased BIOPHEN FVIII:C (assay kit)
Description: Inhibition of iXase was assessed using the chromogenic substrate assay and the FVIII assay kit BIOPHEN FVIII:C: containing R1 (FX), R2 (Activation Reagent), and R3 (SXa-11) and recombinant human factor VIII (FVIII). A total of 30 μL of each sample was added to the 96-well plate, followed by 30 μL of R2 and 30 μL of FVIII solution (2 IU/mL), and the place was placed in the microplate reader. The plates were mixed and incubated at 37 °C for 2 min. Then, 30 μL of R1 was added to mix and incubated at 37 °C for 1 min, and finally, 30 μL of R3 was added. The absorbance value at 405 nm (OD405nm) was recorded via a microplate reader, and continuous reading was performed for 2min at 15 s intervals. The experiments were performed in duplicate. The average value of OD405nm was linearly fitted to time, and the slope (the rate of change in absorbance value ΔOD405nm/min) corresponded to the iXase activity.
(§1) Activities of natural HfFG (FG from H. fuscopunctata) and its oligosaccharides oHG-8, oHG-11, oHG-14, and oHG-17 were simultaneously detected for comparison.

[2] = system: intrinsic coagulation pathway (APTT of human plasma); assay: Anticoagulant activity: APTT with a coagulometer, APTT reagent and standard human plasma; type: biochemical; settings: for 2APTT: concentration required to double the APTT of human plasma (EC2.0×): standard human plasma, EC2.0× ± SD (n = 2)
Description: The anticoagulant activities of natural SnFG and its oligosaccharides 3, 4, 5, and 6 were assessed using a coagulometer (TECO, MC-2000) using APTT reagents and standard human plasma, according to a previous method. Briefly, 5 μL of a series of concentrations of the samples was added to a standard preheated to 37 °C and another 45 μL of standard human plasma was added for co-incubation at 37 °C for 2 min, followed by the addition of 50 μL of APTT reagent for incubation for another 3 min. Subsequently, 50 μL of CaCl2 (0.02 M) was added and the timer was started.
as §1

T1 sequence (P00740 47-191 limits assumed): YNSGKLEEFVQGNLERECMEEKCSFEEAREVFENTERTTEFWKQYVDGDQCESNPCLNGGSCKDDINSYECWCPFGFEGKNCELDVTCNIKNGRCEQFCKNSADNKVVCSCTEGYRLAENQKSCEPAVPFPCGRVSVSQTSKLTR
T1 sequence (P00740 227-461 limits assumed): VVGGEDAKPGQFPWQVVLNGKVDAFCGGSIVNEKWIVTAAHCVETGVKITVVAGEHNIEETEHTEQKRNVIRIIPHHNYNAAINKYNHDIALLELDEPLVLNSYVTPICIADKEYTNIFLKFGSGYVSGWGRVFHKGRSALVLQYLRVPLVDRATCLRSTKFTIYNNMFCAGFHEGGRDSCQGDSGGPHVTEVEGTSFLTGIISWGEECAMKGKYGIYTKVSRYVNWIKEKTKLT

| Anti-iXase: concentration required to inhibit 50% Xase activity (IC50) [1] [ng/mL] | Substance | 2APTT: concentration required to double the APTT of human plasma (EC2.0×) [2] | fold stronger than oHG-8 in APTT prolongation (EC2.0×) ([2]; EC2.0× 20.94 vs. 32.35 μg/mL) |
| --- | --- | --- | --- |
| 84.44 ± 7.99 | enoxaparin [LMWH, reference compound] | 7.46 ± 0.02 µg/mL |  |
| 335.0 ± 24.73 | L-Fuc2S4S-α(1,3)-L-Δ^4,5HexA-α(1,3)-D-GalNAc4S6S-β(1,4)-[L-Fuc2S4S-α(1,3)]-D-GlcA-β(1,3)-D-GalNAc4S6S-β(1,4)-[L-Fuc2S4S-α(1,3)]-D-GlcA-ol [compound 3] | 20.94 µg/mL and 20.94 ± 0.27 µg/mL | about 1.5 fold |

Source: publication PMC11204762, “Purification and Structural Analyses of Sulfated Polysaccharides from Low-Value Sea Cucumber Stichopus naso and Anticoagulant Activities of Its Oligosaccharides” (Marine Drugs, 2024)
